assay: recombinant UMI read abundance after kanamycin selection (control-corrected) (log10(CPM+1)); higher = more efficient recombination; extreme values may be limits of the assay; sequences stand for … in AGTGCAGAGAAAATCGGCCAGTTTTCTCTGCCTGCAGTCCGCATGCCGTGGGACCCCTTGGGTTCTAACCTGTTGCCTAGATTTATGCAGCGGACTGCCTTTCTCCCAAAGTGATAAACCGG…AGGTTGGTTTCACT; site = the 11-nt donor
In short: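 Values, expressed as log10(CPM+1), derive from recombinant UMI counts converted to CPM, averaged across replicates and scaled by control-derived factors. Plating was with IPTG (0.07 mM) plus kanamycin or unselected, two replicates each. The screen pooled donor and donor-binding-loop pairs for the IS621 bridge recombinase in Escherichia coli.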
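Note: IS621 bridge recombinase in Escherichia coli cells against a fixed T5 target plasmid.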

| Sequence | recombinant UMI read abundance (log10) |
| --- | --- |
| CGGAGATCATGGACCGGTTTTCCCGGTAATCCGTATTTGGT (site CGGAGATCTAC) | 2.19 |
| CGGAGCACATGGACCGGTTTTCCCGGTAATCCGTATTTGAA (site CGGAGCACTTT) | 1.77 |
| CGGAGTCCATGGACCGGTTTTCCCGGTAATCCGTATTTGTT (site CGGAATCCTAA) | 0.767 |
| CGGAGTCCATGGACCGGTTTTCCCGGTAATCCGTATTTGTT (site CGGACTCCTAA) | 0.011 |
| CGGAGTCCATGGACCGGTTTTCCCGGTAATCCGTATTTGTT (site CGGAGTCCTAA) | 0.684 |
| CGGAGTCCATGGACCGGTTTTCCCGGTAATCCGTATTTGTT (site CGGATTCCTAA) | 0 |
| CGGATACCATGGACCGGTTTTCCCGGTAATCCGTATTTGTT (site CGGAATCCTAA) | 0.00671 |
| CGGATACCATGGACCGGTTTTCCCGGTAATCCGTATTTGTT (site CGGATACCTAA) | 0 |
| CGGATTGCATGGACCGGTTTTCCCGGTAATCCGTATTTGCT (site CGGATTGCTAG) | 1.79 |
| CGGCAGACATGGACCGGTTTTCCCGGTAATCCGTATTTGGT (site CGGCAGACTAC) | 1.9 |
| CGGCCCTCATGGACCGGTTTTCCCGGTAATCCGTATTTGCA (site CGGCCCTCTTG) | 3.02 |
| CGGCGGACATGGACCGGTTTTCCCGGTAATCCGTATTTGTG (site CGGCGGACTCA) | 1.64 |
| CGGCGTTCATGGACCGGTTTTCCCGGTAATCCGTATTTGAC (site CGGCGTTCTGT) | 1.69 |
| CGGCTGCCATGGACCGGTTTTCCCGGTAATCCGTATTTGTT (site CGGCTGCCTAA) | 0.0892 |
| CGGCTTACATGGACCGGTTTTCCCGGTAATCCGTATTTGTC (site CGGCTTACTGA) | 1.65 |
| CGGGAACCATGGACCGGTTTTCCCGGTAATCCGTATTTGAC (site CGGGAACCTAT) | 0 |
| CGGGAACCATGGACCGGTTTTCCCGGTAATCCGTATTTGAC (site CGGGAACCTCT) | 0 |
| CGGGAACCATGGACCGGTTTTCCCGGTAATCCGTATTTGAC (site CGGGAACCTGT) | 0 |
| CGGGAACCATGGACCGGTTTTCCCGGTAATCCGTATTTGAC (site CGGGAACCTTT) | 0.0135 |
| CGGGAATCATGGACCGGTTTTCCCGGTAATCCGTATTTGAT (site CGGGAAACTAT) | 1.23 |
| CGGGAATCATGGACCGGTTTTCCCGGTAATCCGTATTTGAT (site CGGGAACCTAT) | 0 |
| CGGGAATCATGGACCGGTTTTCCCGGTAATCCGTATTTGAT (site CGGGAAGCTAT) | 0.284 |
| CGGGAATCATGGACCGGTTTTCCCGGTAATCCGTATTTGAT (site CGGGAATCTAT) | 2.01 |
| CGGGACACATGGACCGGTTTTCCCGGTAATCCGTATTTGTC (site CGGGACACTGA) | 3.03 |
| CGGGAGCCATGGACCGGTTTTCCCGGTAATCCGTATTTGCC (site CGGGAGACTGG) | 0.0249 |

| Sequence | recombinant UMI read abundance (log10) |
| --- | --- |
| CGGGAGCCATGGACCGGTTTTCCCGGTAATCCGTATTTGCC (site CGGGAGCCTGG) | 0 |
| CGGGAGCCATGGACCGGTTTTCCCGGTAATCCGTATTTGCC (site CGGGAGGCTGG) | 0.991 |
| CGGGAGCCATGGACCGGTTTTCCCGGTAATCCGTATTTGCC (site CGGGAGTCTGG) | 1 |
| CGGGAGTCATGGACCGGTTTTCCCGGTAATCCGTATTTGCC (site AGGGAGTCTGG) | 0 |
| CGGGAGTCATGGACCGGTTTTCCCGGTAATCCGTATTTGCC (site CAGGAGTCTGG) | 2.51 |
| CGGGAGTCATGGACCGGTTTTCCCGGTAATCCGTATTTGCC (site CCGGAGTCTGG) | 0 |
| CGGGAGTCATGGACCGGTTTTCCCGGTAATCCGTATTTGCC (site CGAGAGTCTGG) | 2.48 |
| CGGGAGTCATGGACCGGTTTTCCCGGTAATCCGTATTTGCC (site CGCGAGTCTGG) | 1.69 |
| CGGGAGTCATGGACCGGTTTTCCCGGTAATCCGTATTTGCC (site CGGAAGTCTGG) | 2.67 |
| CGGGAGTCATGGACCGGTTTTCCCGGTAATCCGTATTTGCC (site CGGCAGTCTGG) | 0 |
| CGGGAGTCATGGACCGGTTTTCCCGGTAATCCGTATTTGCC (site CGGGAATCTGG) | 2.83 |
| CGGGAGTCATGGACCGGTTTTCCCGGTAATCCGTATTTGCC (site CGGGACTCTGG) | 0 |
| CGGGAGTCATGGACCGGTTTTCCCGGTAATCCGTATTTGCC (site CGGGAGACTGG) | 1.54 |
| CGGGAGTCATGGACCGGTTTTCCCGGTAATCCGTATTTGCC (site CGGGAGCCTGG) | 0 |
| CGGGAGTCATGGACCGGTTTTCCCGGTAATCCGTATTTGCC (site CGGGAGGCTGG) | 0.103 |
| CGGGAGTCATGGACCGGTTTTCCCGGTAATCCGTATTTGCC (site CGGGAGTCTAG) | 2.02 |
| CGGGAGTCATGGACCGGTTTTCCCGGTAATCCGTATTTGCC (site CGGGAGTCTCG) | 1.51 |
| CGGGAGTCATGGACCGGTTTTCCCGGTAATCCGTATTTGCC (site CGGGAGTCTGA) | 2.66 |
| CGGGAGTCATGGACCGGTTTTCCCGGTAATCCGTATTTGCC (site CGGGAGTCTGC) | 2.08 |
| CGGGAGTCATGGACCGGTTTTCCCGGTAATCCGTATTTGCC (site CGGGAGTCTGG) | 1.67 |
| CGGGAGTCATGGACCGGTTTTCCCGGTAATCCGTATTTGCC (site CGGGAGTCTGT) | 1.75 |
| CGGGAGTCATGGACCGGTTTTCCCGGTAATCCGTATTTGCC (site CGGGAGTCTTG) | 2.01 |
| CGGGAGTCATGGACCGGTTTTCCCGGTAATCCGTATTTGCC (site CGGGATTCTGG) | 0 |
| CGGGAGTCATGGACCGGTTTTCCCGGTAATCCGTATTTGCC (site CGGGCGTCTGG) | 0 |
| CGGGAGTCATGGACCGGTTTTCCCGGTAATCCGTATTTGCC (site CGGGGGTCTGG) | 1.3 |

| Sequence | recombinant UMI read abundance (log10) |
| --- | --- |
| CGGGAGTCATGGACCGGTTTTCCCGGTAATCCGTATTTGCC (site CGGGTGTCTGG) | 0 |
| CGGGAGTCATGGACCGGTTTTCCCGGTAATCCGTATTTGCC (site CGGTAGTCTGG) | 0.878 |
| CGGGAGTCATGGACCGGTTTTCCCGGTAATCCGTATTTGCC (site CGTGAGTCTGG) | 0.895 |
| CGGGAGTCATGGACCGGTTTTCCCGGTAATCCGTATTTGCC (site CTGGAGTCTGG) | 2.06 |
| CGGGAGTCATGGACCGGTTTTCCCGGTAATCCGTATTTGCC (site GGGGAGTCTGG) | 0 |
| CGGGAGTCATGGACCGGTTTTCCCGGTAATCCGTATTTGCC (site TGGGAGTCTGG) | 0 |
| CGGGATCCATGGACCGGTTTTCCCGGTAATCCGTATTTGAT (site CGGGAACCTAT) | 0.0108 |
| CGGGATCCATGGACCGGTTTTCCCGGTAATCCGTATTTGAT (site CGGGACCCTAT) | 0.492 |
| CGGGATCCATGGACCGGTTTTCCCGGTAATCCGTATTTGAT (site CGGGAGCCTAT) | 0.0289 |
| CGGGATCCATGGACCGGTTTTCCCGGTAATCCGTATTTGAT (site CGGGATCCTAT) | 0.898 |
| CGGGATCCATGGACCGGTTTTCCCGGTAATCCGTATTTGTT (site CGGAATCCTAA) | 0.736 |
| CGGGATCCATGGACCGGTTTTCCCGGTAATCCGTATTTGTT (site CGGCATCCTAA) | 0.02 |
| CGGGATCCATGGACCGGTTTTCCCGGTAATCCGTATTTGTT (site CGGGATCCTAA) | 0.85 |
| CGGGATCCATGGACCGGTTTTCCCGGTAATCCGTATTTGTT (site CGGTATCCTAA) | 0.243 |
| CGGGCACCATGGACCGGTTTTCCCGGTAATCCGTATTTGAT (site CGGGAACCTAT) | 0 |
| CGGGCACCATGGACCGGTTTTCCCGGTAATCCGTATTTGAT (site CGGGCACCTAT) | 0 |
| CGGGCACCATGGACCGGTTTTCCCGGTAATCCGTATTTGAT (site CGGGGACCTAT) | 0.0117 |
| CGGGCACCATGGACCGGTTTTCCCGGTAATCCGTATTTGAT (site CGGGTACCTAT) | 0 |
| CGGGCATCATGGACCGGTTTTCCCGGTAATCCGTATTTGCT (site CGATCATCTAG) | 0 |
| CGGGCATCATGGACCGGTTTTCCCGGTAATCCGTATTTGCT (site CGGACATCTAG) | 0.763 |
| CGGGCATCATGGACCGGTTTTCCCGGTAATCCGTATTTGCT (site CGGCCATCTAG) | 0 |
| CGGGCATCATGGACCGGTTTTCCCGGTAATCCGTATTTGCT (site CGGGCATCTAG) | 1.86 |
| CGGGCATCATGGACCGGTTTTCCCGGTAATCCGTATTTGCT (site CGGTCATCTAG) | 0 |
| CGGGCATCATGGACCGGTTTTCCCGGTAATCCGTATTTGTA (site CGGGCATCTTA) | 2.38 |
| CGGGCTGCATGGACCGGTTTTCCCGGTAATCCGTATTTGAG (site CGGGCTGCTCT) | 1.37 |
